Here are results for one compound from article PMC6934184, “Selective DNA-PKcs inhibition extends the therapeutic index of localized radiotherapy and chemotherapy” (The Journal of Clinical Investigation, 2019).

This assay has as its target T1, PDGFRA V561D (Homo sapiens, UniProt P16234, V561D).
T1 construct: purchased Thermo Fisher Scientific (Life Technologies) SelectScreen
Kind of assay: SelectScreen Z'LYTE. It counts as biochemical. The method, boiled down:
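NU5455 was profiled across the SelectScreen Broad panel of kinase activity and binding assays. Z'LYTE reactions such as CSF1R ran at apparent Km ATP, while the Adapta CAMK1 assay used ATP listed as 10. Values are given as percent.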

As a reminder, the inhibition is the change of the read-out against control, counted positive when it falls.

T1 sequence (P16234 24-1089 V561D): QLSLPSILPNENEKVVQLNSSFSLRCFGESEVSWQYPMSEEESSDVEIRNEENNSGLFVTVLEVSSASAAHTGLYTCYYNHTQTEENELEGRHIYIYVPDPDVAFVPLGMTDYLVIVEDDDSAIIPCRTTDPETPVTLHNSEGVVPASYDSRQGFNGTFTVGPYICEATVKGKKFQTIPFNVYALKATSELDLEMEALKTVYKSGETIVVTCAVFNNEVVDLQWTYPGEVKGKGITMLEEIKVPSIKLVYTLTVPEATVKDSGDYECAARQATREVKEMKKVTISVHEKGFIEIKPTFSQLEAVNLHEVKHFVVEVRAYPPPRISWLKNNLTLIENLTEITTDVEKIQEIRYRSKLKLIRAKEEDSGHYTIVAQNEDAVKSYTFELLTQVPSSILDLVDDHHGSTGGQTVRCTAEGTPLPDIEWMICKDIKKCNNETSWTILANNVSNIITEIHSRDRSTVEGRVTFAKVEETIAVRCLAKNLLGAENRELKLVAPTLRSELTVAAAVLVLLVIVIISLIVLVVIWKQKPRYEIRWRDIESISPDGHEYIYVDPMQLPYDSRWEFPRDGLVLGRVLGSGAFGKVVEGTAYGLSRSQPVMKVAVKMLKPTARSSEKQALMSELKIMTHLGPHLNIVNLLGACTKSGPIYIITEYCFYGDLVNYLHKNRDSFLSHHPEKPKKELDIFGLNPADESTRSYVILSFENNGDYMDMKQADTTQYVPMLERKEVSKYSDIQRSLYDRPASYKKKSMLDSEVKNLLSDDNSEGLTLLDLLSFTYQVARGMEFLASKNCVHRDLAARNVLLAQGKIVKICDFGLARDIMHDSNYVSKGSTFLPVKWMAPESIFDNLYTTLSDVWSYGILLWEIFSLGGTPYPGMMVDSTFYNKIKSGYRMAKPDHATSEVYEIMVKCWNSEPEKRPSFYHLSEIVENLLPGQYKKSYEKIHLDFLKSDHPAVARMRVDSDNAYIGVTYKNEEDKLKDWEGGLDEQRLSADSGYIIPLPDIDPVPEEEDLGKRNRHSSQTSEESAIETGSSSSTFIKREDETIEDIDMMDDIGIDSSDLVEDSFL

Regarding `CN(C(=O)CN1CCOCC1)c1ccc2sc3c(-c4cccc5c(=O)cc(N6CC7CCC(C6)O7)oc45)cccc3c2c1` [NU5455], the inhibition at 1 µM was -2.3%.
